Results reported in patent publication US20120195837A1, “TIN(II)-2-HYDROXYCARBOXYLATES” (HONEYWELL INTERNATIONAL INC., priority 2011, published 2012).

Legend:
[1] = Physical properties of the solid (hygroscopicity, flow); type: physicochemical; conditions: versus stannous chloride dihydrate
Excerpt: Thus, tin(II) lactate is observed to be a non-hygroscopic, and therefore an easily handlable free-flowing powder. In addition, tin(II) lactate is observed to be non-corrosive.
In addition, tin(II) lactate is observed to be non-corrosive toward standard industrial equipment.

[2] = Oral care application of formulated dentifrice or oral wash; type: in vivo; conditions: formulated as oral dentifrice or oral wash
Excerpt: A sample of tin(II) L-lactate (Example 2) is formulated as an oral dentifrice or oral wash, using additives and methods as known in the art.

Structure (SMILES): CC(O)C(=O)[O-].CC(O)C(=O)[O-].[Sn+2] (stereo not drawn) [tin(II) lactate, Tin(II) Lactate]
- hygroscopicity / powder behaviour [1]: non-hygroscopic, free-flowing powder

Structure (SMILES): C[C@H](O)C(=O)[O-].C[C@H](O)C(=O)[O-].[Sn+2] [tin(II) L-lactate, Tin(II) L-lactate]
- retention of Sn(II) ion on oral surfaces ([2]; applied for about 5 to about 10 minutes): successfully results in retention of Sn(II) ion on oral surfaces
- plaque formation and/or dental caries ([2]; compared with a control group which lacks the Sn(II) application): reduces plaque formation and/or dental caries
